Reference: a melting point compilation (Tetko et al.; mined from patent text by program, amines drawn as free bases though some values may be those of a salt)

| melting point | Structure (SMILES) |
| --- | --- |
| 196 to 197 °C | FC(F)(F)c1ccc(C=CC(C=Cc2ccc(C(F)(F)F)cc2)=NNC2=NCCCN2)cc1 |
| 233 to 234 °C | COc1cc(Nc2c(C#N)cnc3cc(I)sc23)c(Cl)cc1Cl |
| 237 to 240 °C | O=[N+]([O-])c1ccc(NC2CC2)nc1Nc1ccc2[nH]ncc2c1 |
| 211 to 214 °C | COc1ccc(-c2csc(Nc3ccccn3)n2)cc1OC |
| 140 to 141 °C | CCOC(=O)c1csc(NC(c2ccccc2)(c2ccccc2)c2ccccc2)n1 |
| 168 to 170 °C | O=C(O)CCCCNC(=O)c1ccccc1NC(=O)c1ccccc1O |
| 151 to 153 °C | Cc1ccncc1C(O)c1ccc2cc(CO)ccc2c1 (stereo not given) |
| 148 to 151 °C | CC(C)C[C@H](NC(=O)[C@H](Cc1ccccc1)NC(=O)C1CCCC1)C(=O)O |
| 67 to 69 °C | O=C(NC12CC3CC(CC(C3)C1)C2)OCCc1cccs1 |
| 155 to 156 °C | Cc1ccc(Oc2nsnc(Cl)c2=O)cn1 |
| 214 to 217 °C | CC1(C)Oc2cc([N+](=O)[O-])sc2C(N2CCCC2=O)C1O (stereo not given) |
| 116 to 118 °C | CCCC(NS(=O)(=O)c1ccc(Cl)cc1)C(=S)Nc1ccc(CCC(=O)OC)cc1 (racemic) |
| 203 to 205 °C | CCOc1cccc(-c2ccc(C3=CCN(S(=O)(=O)C4(C(=O)O)CCOCC4)CC3)cc2C)c1 |
| 65 to 66 °C | O=C(CSc1ccc(Cl)cc1)c1ccccc1 |
| 164 to 165 °C | Clc1ncccc1OCC#CI |
| 195 to 196 °C | Cn1nc(N)c2c(c1=O)OCCNC2Cc1ccccc1 (stereo not given) |
| 164 to 165 °C | Cc1ccc(N2CCN(CCCCc3ccc(C4CCC(=O)N4)cc3)CC2)cc1 (stereo not given) |
| 273 to 274 °C | Cc1c(-c2cccc(O)c2O)c(=O)oc2cc(O)ccc12 |
| 50 °C | O=C(OCCCl)c1cccc(O)c1 |
| 138 to 140 °C | Cc1ccc(NC(=O)c2ccccc2N)cc1C(F)(F)F |
| 151 to 153 °C | CCC(C)(C)N=C(NC#N)Nc1cc(Cl)cc(Cl)c1 |
| 68 to 69 °C | CSc1nc(C#N)c(I)c(C(F)(F)F)n1 |
| 199 to 202 °C | CN(C(N)=O)C1c2ccccc2Oc2ccccc21 |

| melting point | Structure (SMILES) |
| --- | --- |
| 134 to 136 °C | CC(C)(C)C(=O)Oc1nc(-c2ccccc2)sc1-c1ccccc1 |
| 165 to 166 °C | COc1ccc(S(=O)(=O)N2CCc3cccc(-c4ccc(CN(C)C)cc4)c32)cc1 |
| 60 to 63 °C | COC[C@H](Cc1ccccc1)NC(=O)[C@@H](CC(=O)OCc1ccccc1)NC(=O)OC(C)(C)C |
| 76 to 77 °C | CCCc1oc(-c2ccccc2)nc1COc1ccc(C=O)cc1 |
| 203 to 204 °C | CC(C)c1ccc2c(c1)OCc1ccc(C(=O)O)cc1C2=O |
| 105 °C | Cc1ccc(-c2nnc3c(n2)CCCC3)nc1-c1ccc(F)cc1 |
| 283 to 286 °C | O=C(O)Cc1cc(S)n2ncnc2n1 |
| 186 to 188 °C | CCOC(=O)C(C)(C)c1nc2ccc(OCCCN3CCC(OC(c4ccccc4)c4ccccc4)CC3)nn2c1Cl |
| 215 to 217 °C | CC(C)CC(=O)Nc1cccc(-c2ccnc3c(-c4ccc(Cl)cc4)cnn23)c1 |
| 198 to 200 °C | O=C1[C@H]2CCC[C@H]2N(C(=O)CBr)c2ccccc2N1Cc1ccccc1F (relative stereo) |
| 100 to 102 °C | CN(C(=N)Nc1ncccc1OCc1c(F)cccc1F)c1ccc(Cl)cc1 |
| 74 to 75 °C | O=[N+]([O-])CS(=O)(=O)c1ccc(F)cc1F |
| 139 to 140 °C | COCOc1cc(C(F)(F)F)ccc1-c1cc(-c2cccc([N+](=O)[O-])c2)c(C#N)c(NC(=O)c2cccs2)n1 |
| 207 to 210 °C | O=C(Nc1ccc(CN2C(=O)[C@H]3CCC[C@H]3N(C(=O)CCl)c3ccccc32)cc1)Oc1ccccc1 (relative stereo) |
| 174 to 179 °C | CCn1c(Oc2cccc(N3CCC4(CC3)OCCO4)c2)nnc1[C@@H](C)NS(=O)(=O)c1ccc(Cl)c(Cl)c1 |
| 193 °C | CN(c1cccc2cc(-c3nccs3)[nH]c12)S(=O)(=O)c1ccsc1CSCC(=O)O |
| 112 to 113 °C | CN1C(=O)SC(=C(CO)c2cccc3ccccc23)C1=O |
| 103 to 106 °C | C=C(COc1cc(Cl)ccc1C=NNP(=O)(OCC)OCC)C(C)C |
| 171 to 174 °C | Cn1ccc2ncnc(Oc3ccc(NC(=O)Nc4cccc(OC(F)(F)F)c4)c(Cl)c3)c21 |
| 108 to 110 °C | CCCCc1c2ccccc2nc2cc(N)ccc12 |
| 171 to 172 °C | CCOC(=O)c1cccc(NC(=O)c2cc(-c3ccc(F)cc3)oc2C)c1 |
| 200 to 204 °C | CC(=O)Nc1ccc(Sc2c(NCC3CC3)cc(C(=O)O)cc2S(N)(=O)=O)cc1 |
| 107 to 112 °C | CCCCOC(=O)c1ccc2cc(O)ccc2c1 |

| melting point | Structure (SMILES) |
| --- | --- |
| 173 to 178 °C | COc1cc2c(cc1CCCCN1CCCC1)[nH]c1cc(-c3ccccc3Cl)c3c(c12)C(=O)NC3=O |
| 173 to 174 °C | CCCCC(CNC(=O)Nc1c(C(C)C)cccc1C(C)C)c1cccc(C)c1 (stereo not given) |
| 179 to 180 °C | COCCNC(=O)c1ccc(C)c(-n2c(C)cc(OCc3ccccc3CNC(=O)Nc3cc(C(C)(C)C)nn3-c3ccc(O)c(Cl)c3)c(Cl)c2=O)c1 |
| 142 to 143 °C | CCc1c(C)nc(-c2ccccc2)nc1NCC(=O)N(C)c1ccc(Cl)cc1 |
| 254 to 255 °C | O=C(c1cc2ccccc2[nH]1)N1CCOCC1Cl (stereo not given) |
| 111 to 112 °C | COC(=O)C=CC(=O)c1cc(Cl)ccc1N |
| 146 to 148 °C | Cc1c(C(=O)NNC(C)(C)C)ccc2c1CCCO2 |
| 88 °C | Cc1nc(C#Cc2ccccc2)n(C)c1-c1nc(C2CC2)no1 |
| 105 to 108 °C | COc1cc2c(c(Cl)c1Cl)C(=O)C(c1ccccc1)(C1CCCC1)C2 (stereo not given) |
| 121 to 122 °C | O=C(CC=C(Cl)C1(Cl)OC1=O)c1ccccc1 (stereo not given) |
| 200 to 202 °C | CCCC(=O)c1c[nH]c2c(OC)cccc2c1=O |
| 86 to 88 °C | CC(=O)c1cc(Cl)sc1SCc1ccccc1 |
| 253 to 255 °C | CCOCc1nc2c(N)nc3cc(OCc4ccccc4Cl)ccc3c2n1CC(C)(C)NS(C)(=O)=O |
| 153 to 156 °C | CCOC(=O)c1cc2cccnc2[nH]1 |
| 134 to 135 °C | CCOC(=O)c1cc(NCc2c(C)cccc2C)c2nc(COC)n(C)c2c1 |
| 128 to 130 °C | CN1CCN(C2c3ccccc3C=Cc3ccc(Br)cc32)CC1 (stereo not given) |
| 58 to 59 °C | CC(C(=O)n1c(=O)oc2ccccc21)C1(O)CCCCC1 (stereo not given) |
| 118 to 122 °C | COc1ccc(-c2cc(-c3ccccc3)c(-c3ccccc3)s2)cc1F |
| 242 °C | Cc1ccc(NC(=O)c2ccc(/C=C/C(=O)NO)s2)cc1Nc1nc(-c2cccnc2)cs1 |
| 66 to 68 °C | CS(=O)(=O)Oc1ccc(S)cc1 |
| 224 to 227 °C | O=C1Nc2ccccc2Oc2c1csc2Cl |
| 122 to 124 °C | OC1CCN(c2ncc(-c3ccc(Cl)cc3Cl)cn2)CC1 |
| 63 to 64.5 °C | COC(=O)CCc1cc(C(C)(C)C)c(O)c(C(C)(C)C)c1 |

| melting point | Structure (SMILES) |
| --- | --- |
| 87 to 90 °C | Cn1c(C(=O)N2CCC[C@@H]3CCCC[C@H]32)cc2ccccc21 (relative stereo) |
| 80 to 93 °C | COC(=O)C=CC(CNC(=O)C(C)(Cc1c[nH]c2ccccc12)NC(=O)OC1C2CC3CC(C2)CC1C3)c1ccccc1 (stereo not given) |
| 127 to 129 °C | CCN(C)c1ccc2c(c1)CNC2=O |
| 189 to 190 °C | O=C(O)c1ncsc1-c1ccccc1 |
| 211 to 213 °C | OCc1nc2cnc3ccccc3c2n1Cc1ccccc1 |
| 103 to 112 °C | Cc1c(-c2ccccc2)oc2c(C(=O)NCCCN3CCN(c4ccccc4OC(F)(F)F)CC3)cccc2c1=O |
| 127 to 130 °C | O=C(NCCCCCCOCc1ccc(OCc2ccccc2)cc1)c1cc(-c2cccc(C(F)(F)F)c2)c(O)c(-c2cccc(C(F)(F)F)c2)c1 |
| 157 to 159 °C | NC(=O)CCN1CC2CN(Cc3ccccc3)CC(C1)O2 |
| 190 to 193 °C | Nc1ccc(-c2ccc3nnn(Cc4ccc5ncccc5c4)c3n2)cc1 |
| 182 to 184 °C | O=C1CN(c2ccccc2)C(=O)N1C(=O)c1ccc(Cl)cc1 |
| 232 to 234 °C | Cc1cc(I)ccc1NC1=CC2=NCN(C)C2=CC1(F)C(=O)NN (stereo not given) |
| 257 °C | Cn1c([N+](=O)[O-])cnc1C=Cc1nnc(-c2ccccc2)s1 |
| 261 °C | O=c1ccc2cc(I)ccc2[nH]1 |
| 210 to 212 °C | c1ccc2c(c1)-c1ccccc1C2CC1c2ccccc2-c2ccccc21 |
| 78 to 82 °C | Clc1ccc(N2CCN=C2C(Cn2cncn2)c2ccccc2)c(Cl)c1 (stereo not given) |
| 174 to 175 °C | COC(=O)ONC(=N)Nc1ccc(C(=O)O)cc1 |
| 73 to 75 °C | Cc1nc(-c2cc(N)ccc2F)cs1 |
| 115 to 116 °C | CCCNc1nc(C#N)c(C#N)nc1-c1ccc(C)cc1 |
| 55 to 56 °C | COc1ccc(CCCN)cc1Cl |
| 110 to 112 °C | NC(=O)CCCOc1cccc(CCNS(=O)(=O)c2ccc(Cl)cc2)c1 |
| 213 to 215 °C | CSc1ccc(-c2nc(SC)c(C#N)c(=O)n2-c2ccc(Br)cc2)cc1 |
| 154 to 156 °C | COc1nc(Br)cnc1NS(=O)(=O)c1ccccc1-c1ccc(CC(C)C)cc1 |

| Structure (SMILES) | melting point |
| --- | --- |
| CCCC12CCC3C4CCC(=O)C=C4CCC3C1CCC2OCc1ccccc1 (stereo not given) | 198 to 200 °C |
| O=C(O)CNC1=Nc2ccc(Cl)cc2C(c2ccccc2)=NC1 | 215 to 220 °C |
| CCCN(CCC)C1CCc2cc(NC(C)=O)ccc2C1 (stereo not given) | 119 to 121 °C |
| N#CC(Br)c1ccc(Cl)cc1 (stereo not given) | 46 to 49 °C |
| O=C(c1ccccc1F)C1CCN(CCc2c[nH]c3ccccc23)CC1 | 106 to 108 °C |
| O=[N+]([O-])c1ccc(OCC#CC#CCOc2ccc([N+](=O)[O-])cc2[N+](=O)[O-])cc1 | 125 °C |
| CCc1cccc(NC(=O)NC2N=C(c3ccccc3F)c3ccccc3N(CC(=O)N3CC4CCC(CC4)C3)C2=O)c1 (racemic) | 185 to 192 °C |
| CN1C(=O)C(C)(C)N=C(c2ccccc2F)c2c1ccc(N)c2Br | 217 to 220 °C |
| Cc1ccc(S(=O)(=O)N2CC2c2ccccc2)cc1 (stereo not given) | 92 to 94 °C |
